This test deals with T1, double mutant IDE (Gln363Ala, His332Ala) (Homo sapiens, UniProt P14735, H332A/Q363A).
T1 construct: made in house; host or cells: E. coli (BL21 inferred, as for the wild type)
T1 sequence (P14735 1-1019 H332A/Q363A): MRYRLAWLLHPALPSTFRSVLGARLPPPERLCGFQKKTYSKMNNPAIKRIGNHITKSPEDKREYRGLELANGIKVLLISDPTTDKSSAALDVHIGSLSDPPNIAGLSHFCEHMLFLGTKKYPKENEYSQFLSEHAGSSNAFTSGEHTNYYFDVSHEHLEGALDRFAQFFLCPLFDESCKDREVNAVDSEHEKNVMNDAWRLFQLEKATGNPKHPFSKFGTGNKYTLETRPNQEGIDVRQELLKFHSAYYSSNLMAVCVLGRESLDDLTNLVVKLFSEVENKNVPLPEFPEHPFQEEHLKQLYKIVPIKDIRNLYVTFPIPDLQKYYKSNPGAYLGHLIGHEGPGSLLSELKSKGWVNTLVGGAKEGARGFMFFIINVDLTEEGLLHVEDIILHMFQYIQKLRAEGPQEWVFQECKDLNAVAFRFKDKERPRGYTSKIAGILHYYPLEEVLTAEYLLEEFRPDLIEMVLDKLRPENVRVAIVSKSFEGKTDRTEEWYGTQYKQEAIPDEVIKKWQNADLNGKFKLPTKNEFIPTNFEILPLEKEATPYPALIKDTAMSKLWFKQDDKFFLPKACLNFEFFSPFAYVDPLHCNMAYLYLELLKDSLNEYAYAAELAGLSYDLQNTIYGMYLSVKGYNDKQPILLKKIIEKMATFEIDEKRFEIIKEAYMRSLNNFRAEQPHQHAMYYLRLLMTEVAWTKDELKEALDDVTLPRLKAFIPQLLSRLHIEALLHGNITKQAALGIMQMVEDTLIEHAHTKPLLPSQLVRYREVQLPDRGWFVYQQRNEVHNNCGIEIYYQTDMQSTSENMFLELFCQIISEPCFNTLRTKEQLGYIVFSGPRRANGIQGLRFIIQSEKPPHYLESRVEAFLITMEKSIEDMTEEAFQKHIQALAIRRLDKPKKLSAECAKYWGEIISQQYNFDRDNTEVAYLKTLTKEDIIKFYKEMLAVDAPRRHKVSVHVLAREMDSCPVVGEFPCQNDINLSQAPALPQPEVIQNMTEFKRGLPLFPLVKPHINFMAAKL
As to the kind of experiment: FITC-insulin-mAb degradation by double mutant IDE (Gln363Ala, His332Ala). The class given is biochemical. Particulars: 20 µM D10. The text has this:
Since D10 has been found as the strongest activator of IDE towards the proteolysis of insulin, we analyzed the binding site of the compound D10 for the further analysis. According to the computational results, D10 binds to Gln363 at the IDE exosite and His332 (Fig. 1D). We carried out site-directed mutagenesis by replacing these amino acids into Ala in order to verify that D10 indeed binds to this region via these amino acids. We first mutated Gln363 to Ala and then expressed and purified mutant protein through nickel resin. The effect of D10 on the proteolytic activity of mutant IDE (Gln363Ala) was measured towards FITC-insulin-mAb degradation. […] The activation was about 49-fold in the presence of D10 with wild type IDE (Fig. 2B). Although mutant IDE activity was less responsive to D10 compound compared to wild type IDE, it appeared as if D10 were interacting with IDE through […] and could enhance the activity of mutant IDE. […]
The utility of these novel compounds were tested on degradation of insulin by IDE. […] The proteolysis of insulin by IDE was monitored by measuring the changes in fluorescence, where the reaction was carried out with 100 nM of FITC- insulin-mAb and IDE (80 ng) in 100 µl KH2PO4 buffer at a pH of 7.3. […] The increase in fluorescence was monitored by using Fluoroskan Ascent FL microplate reader (Thermo).

The results in this text go back to paper PMC3280214, “Structure Based Discovery of Small Molecules to Regulate the Activity of Human Insulin Degrading Enzyme” (PLoS ONE, 2012).

In the case of `Cc1nn(-c2ccccc2)c2nc(-c3cccc([N+](=O)[O-])c3)n3c4ccccc4nc3c2c1=O` [Compound D10], the “binding to exosite of double mutant IDE” value is given as “could not bind to IDE exosite”.
